Measurements reported in patent US5763573A, “GTPase activating protein fragments” (Chiron Corporation, priority 1995, dated 1998).

Key:
ras p21 protein = assay: Filter assay of ras p21 hydrolysis of 32-P gamma-GTP with and without GAP; type: biochemical; details: FIG. 13; presence and absence of GAP; 30 minutes at room temperature
Description: The above four peptides, in the following two experiments, were tested for their abilities to inhibit the hydrolysis of GTP by ras p21 protein, in the presence and absence of GAP. The first experiment involved peptides G65, G73 and 891. It was carried out as follows: purified wild type ras p21 protein was incubated with 0.25 μM 32-P gamma-GTP in 100 mM NaPO4, pH 6.8, 0.5 mM DTT, 0.5 mM EDTA, 0.005% Na cholate, and 0.5 mg/ml BSA for 15 minutes at 30° C. The mixture was then diluted ten fold with TNM buffer (comprising 20 mM Tris-HCl, pH 7.0, 100 mM NaCl, 5 mM MgCl2). 20 μl (0.05 μg of p21) of this mixture was then combined with 2 μl of the peptide in 25 mM NaOAc, pH 5.5 and incubated for 5 minutes at room temperature. The GAP assay was initiated by the addition of 12 ng GAP in 5 μl TNM buffer with 1 mg/ml BSA or 5 μl TNM BSA buffer for the GAP independent reactions, and the resulting mixture was incubated for 30 minutes at room temperature. The samples were then filtered through nitrocellulose membranes and washed three times with cold TNM. The filters were dried and their radioactivity counted. […] In the presence of GAP, the radioactive ras p21-GTP complex is hydrolyzed to GDP and ras p21 protein, thus reducing the resulting amount of radioactive p21-GTP bound to the filter and consequently, the radioactive counts detected. […]

H-ras protein = H-ras protein (Homo sapiens, UniProt P01112); assay: Typical GAP assay with immunoprecipitated H-ras bound to α-32P-GTP, TLC; type: biochemical; details: sufficient GAP; 60 minutes at room temperature
Description: A typical GAP assay can be carried out as follows. Approximately 0.8 micrograms of H-ras protein obtained as described by Trahey, et al., supra was bound to α-32P-GTP followed by precipitation of the complex with 13 micrograms of an anti-ras antibody, 157-181, that recognizes the carboxyl terminal end of the molecule. Specifically, 157-181 recognizes the carboxyl terminal residues at positions 157-181. Adari et al., 1988 Science, […]:518. Next, 10 micrograms of sheep-anti-mouse IgG, and 10 microliters of protein A-Sepharose beads were added. As a control, the same reactants were combined except that rat IgG replaced 157-181, and goat anti-rat IgG replaced sheep anti-mouse IgG. The pellets were washed with 20 mM tris hydrochloride, pH 7.4, containing 20 mM sodium chloride, 1 mM magnesium chloride and 1 mM DTT and resuspended in the same solution. Four microliter aliquots of the immune complex were then mixed with 10 microliters of GAP, or, as a control, buffer without GAP. After 60 minutes incubation at room temperature the Sepharose beads were washed again, and the bound nucleotides analyzed using thin layer chromatography with 1M LiCl as the solvent. […] The assay detects GAP in a semi-quantitative, dose-dependent fashion. Quantitation can be improved by scraping the relevant regions of the plate and measuring cpm in GDP by use of a gamma counter.

H-ras protein, sequence (P01112 whole entry): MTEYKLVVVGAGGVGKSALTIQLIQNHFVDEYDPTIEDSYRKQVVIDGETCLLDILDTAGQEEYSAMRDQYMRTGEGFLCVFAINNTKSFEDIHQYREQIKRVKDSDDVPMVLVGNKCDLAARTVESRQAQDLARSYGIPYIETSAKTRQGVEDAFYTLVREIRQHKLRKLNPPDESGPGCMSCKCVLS

Substance: peptide G73: peptide corresponding to amino acids positions 975-990 of the full length GAP (GNVPELPDTTEHSRTD; UniProt P20936 975-990, looked up, fragment)
- effect on hydrolysis of GTP (radioactive counts of ras p21-GTP complex on filter) (ras p21 protein): do not affect

Substance: GAP: guanine triphosphatase activating protein purified from human placenta, about 115,000-120,000 daltons
- hydrolysis of GTP to GDP (H-ras protein): near complete hydrolysis
